Measurements taken from US20240116985A1, “STAPLED PEPTIDES AND METHODS THEREOF” (priority 2020, published 2024).

experiment: CHI Log D procedure; format: physicochemical; conditions: pH 7.4

CHI Log D | Structure (SMILES)
4.36 | CC[C@H](C)[C@@H]1NC(=O)[C@H](CC(=O)O)NC(=O)[C@]2(CC=CCCCC3(CCCC=CCCCCCC[C@@](C)(C(=O)N[C@@H](Cc4ccccc4)C(=O)N[C@@H](Cc4csc5ccccc45)C(=O)N[C@@H](CCC(N)=O)C(N)=O)NC(=O)[C@H](CCC(N)=O)NC(=O)[C@H](Cc4ccccc4)NC(=O)[C@H](C)NC(=O)[C@H](C)NC(=O)[C@H](CCC(=O)O)NC(=O)[C@H](CNS(=O)(=O)C(F)(F)F)NC3=O)NC1=O)CCCN2C(C)=O (stereo partly drawn) [I-630, Ac-PL3-Asp-Ile-B5-[Tf]Dap-Glu-Ala-Ala-Phe-Gln-S8-Phe-BztA-Gln-NH2]
2.128 | CC(=O)N1CCC[C@]12CC=CCCCC1(CCCC=CCCCCCC[C@@](C)(C(=O)N[C@@H](Cc3ccc(F)c(F)c3)C(=O)N[C@@H](Cc3c[nH]c4ccccc34)C(=O)N[C@@H](CCC(N)=O)C(N)=O)NC(=O)[C@H](C(C)C)NC(=O)[C@H](Cc3ccccc3)NC(=O)[C@H](C)NC(=O)[C@H](C)NC(=O)[C@H](CC(=O)O)NC(=O)[C@H](CC(=O)O)NC1=O)NC(=O)[C@H](C)NC(=O)[C@H](CC(=O)O)NC2=O (stereo partly drawn) [I-263, Ac-PL3-Asp-Ala-B5-Asp-Asp-Ala-Ala-Phe-Val-S8-34FF-Trp-Gln-NH2]

same assay, conditions: pH 7.4, CHI Log D

chromatographic logD | Structure (SMILES)
1.04 | CC(=O)N[C@@H](Cc1ccccc1)C(=O)N[C@@H](CC(=O)O)C(=O)N[C@@H](C)C(=O)N[C@]1(C)CCCCCCC=CCOC(=O)N2CC[C@@](C(=O)N[C@@H](Cc3ccccn3)C(=O)N[C@@H](Cc3c[nH]c4ccccc34)C(=O)N[C@@H](CCC(N)=O)C(N)=O)(C2)NC(=O)[C@H](C(C)C)NC(=O)[C@H](Cc2ccccc2)NC(=O)[C@H](C)NC(=O)[C@H](C)NC(=O)[C@H](CC(=O)O)NC(=O)[C@H](CC(=O)O)NC1=O (single isomer, unassigned) [I-80, Ac-Phe-Asp-Ala-R8-Asp-Asp-Ala-Ala-Phe-Val-PyrS-2PyrA-Trp-Gln-NH2]
2.22 | CC(=O)N1CCC[C@]12CC=CCCCC1(CCCC=CCCCCCC[C@@](C)(C(=O)N[C@@H](Cc3ccccc3)C(=O)N[C@@H](Cc3c[nH]c4ccccc34)C(N)=O)NC(=O)[C@H](C(C)C)NC(=O)[C@H](Cc3ccccc3)NC(=O)[C@H](C)NC(=O)[C@H](C)NC(=O)[C@H](CCC(=O)O)NC(=O)[C@H](CC(=O)O)NC1=O)NC(=O)[C@H](C)NC(=O)[C@H](CC(=O)O)NC2=O (stereo partly drawn) [I-128, Ac-PL3-Asp-Ala-B5-Asp-Glu-Ala-Ala-Phe-Val-S8-Phe-Trp-NH2]
2.04 | CC(=O)N1CCC[C@]12CC=CCCCC1(CCCC=CCCCCCC[C@@](C)(C(=O)N[C@@H](Cc3ccccc3)C(=O)N[C@@H](Cc3c[nH]c4ccccc34)C(=O)N[C@@H](CCC(N)=O)C(N)=O)NC(=O)[C@H](C(C)C)NC(=O)[C@H](Cc3c[nH]cn3)NC(=O)[C@H](C)NC(=O)[C@H](C)NC(=O)[C@H](CC(=O)O)NC(=O)[C@H](CC(=O)O)NC1=O)NC(=O)[C@H](C)NC(=O)[C@H](CC(=O)O)NC2=O (single isomer, unassigned) [I-320, Ac-PL3-Asp-Ala-B5-Asp-Asp-Ala-Ala-His-Val-S8-Phe-Trp-Gln-NH2]
2.34 | CC(=O)N1CCC[C@]12CC=CCCCC1(CCCC=CCCCCCC[C@@](C)(C(=O)N[C@@H](Cc3ccccc3)C(=O)N[C@@H](Cc3c[nH]c4ccccc34)C(=O)N[C@@H](CCC(N)=O)C(N)=O)NC(=O)[C@H](C(C)C)NC(=O)[C@H](Cc3ccccc3)NC(=O)[C@H](C)NC(=O)[C@H](C)NC(=O)[C@H](CCC(=O)O)NC(=O)[C@H](CC(=O)O)NC1=O)NC(=O)[C@H](C)NC(=O)[C@H](Cc1c[nH]cn1)NC2=O (single isomer, unassigned) [I-314, Ac-PL3-His-Ala-B5-Asp-Glu-Ala-Ala-Phe-Val-S8-Phe-Trp-Gln-NH2]
0.958 | CC(=O)N[C@@H](Cc1ccccc1)C(=O)N[C@@H](CC(=O)O)C(=O)N[C@@H](C)C(=O)N[C@]1(C)CCCCCCC=CCOC(=O)N2CC[C@@](C(=O)N[C@@H](Cc3ccc(C(N)=O)cc3)C(=O)N[C@@H](Cc3c[nH]c4ccccc34)C(=O)N[C@@H](CCC(N)=O)C(N)=O)(C2)NC(=O)[C@H](C(C)C)NC(=O)[C@H](Cc2ccccc2)NC(=O)[C@H](C)NC(=O)[C@H](C)NC(=O)[C@H](CC(=O)O)NC(=O)[C@H](CC(=O)O)NC1=O (single isomer, unassigned) [I-90, Ac-Phe-Asp-Ala-R8-Asp-Asp-Ala-Ala-Phe-Val-PyrS-4CBMF-Trp-Gln-NH2]
3.09 | CC(=O)N1CCC[C@]12CC=CCCCC1(CCCC=CCCCCCC[C@@](C)(C(=O)N[C@@H](Cc3ccccc3)C(=O)N[C@@H](Cc3c[nH]c4ccccc34)C(=O)N[C@@H](CCC(N)=O)C(N)=O)NC(=O)[C@H](C(C)C)NC(=O)[C@H](Cc3ccccc3)NC(=O)[C@H](C)NC(=O)[C@H](C)NC(=O)[C@H](CCC(=O)O)NC(=O)[C@H](CC(=O)O)NC1=O)NC(=O)[C@H](C)NC(=O)[C@H](Cc1cccc(C)c1)NC2=O (stereo partly drawn) [I-203, Ac-PL3-3MeF-Ala-B5-Asp-Glu-Ala-Ala-Phe-Val-S8-Phe-Trp-Gln-NH2]
1.4 | CC(=O)N[C@@H](Cc1ccccc1)C(=O)N[C@@H](CC(=O)O)C(=O)N[C@@H](C)C(=O)N[C@]1(C)CCCCCCC=CCOC(=O)N2CC[C@@](C(=O)N[C@@H](Cc3ccccc3)C(=O)N[C@@H](Cc3c[nH]c4ccccc34)C(=O)N[C@@H](CCC(N)=O)C(N)=O)(C2)NC(=O)[C@H](C(C)C)NC(=O)[C@H](Cc2ccc3ccccc3c2)NC(=O)[C@H](C)NC(=O)[C@H](C)NC(=O)[C@H](CC(=O)O)NC(=O)[C@H](CC(=O)O)NC1=O (single isomer, unassigned) [I-112, Ac-Phe-Asp-Ala-R8-Asp-Asp-Ala-Ala-2NapA-Val-PyrS-Phe-Trp-Gln-NH2]
1.72 | CC[C@H](C)[C@H](NC(=O)[C@H](CC(=O)O)NC(=O)[C@H](C)NC(C)=O)C(=O)N[C@]1(C)CCN(C)C(=O)OCC=CCCCCC[C@@](C)(C(=O)N[C@@H](Cc2ccccc2)C(=O)N[C@@H](Cc2c[nH]c3ccccc23)C(=O)N[C@@H](Cc2c[nH]cn2)C(N)=O)NC(=O)[C@H](CCC(N)=O)NC(=O)[C@H](Cc2ccccc2)NC(=O)[C@H](C)NC(=O)[C@H](C)NC(=O)[C@H](CC2CCCCC2)NC(=O)[C@H](CC(=O)O)NC1=O (single isomer, unassigned) [I-72, Ac-Ala-Asp-Ile-RdN-Asp-Cha-Ala-Ala-Phe-Gln-S7-Phe-Trp-His-NH2]
0.92 | CC(=O)N[C@@H](Cc1ccccc1)C(=O)N[C@@H](CC(=O)O)C(=O)N[C@@H](C)C(=O)N[C@]1(C)CCCCCCC=CCOC(=O)N2CC[C@@](C(=O)N[C@@H](Cc3ccccc3)C(=O)N[C@@H](Cc3c[nH]c4ccccc34)C(=O)N[C@@H](CCC(N)=O)C(N)=O)(C2)NC(=O)[C@H](C(C)C)NC(=O)[C@H](Cc2ccccc2)NC(=O)[C@H](CCC(=O)O)NC(=O)[C@H](C)NC(=O)[C@H](CC(=O)O)NC(=O)[C@H](CC(=O)O)NC1=O (single isomer, unassigned) [I-21, Ac-Phe-Asp-Ala-R8-Asp-Asp-Ala-Glu-Phe-Val-PyrS-Phe-Trp-Gln-NH2]
1.65 | CC(=O)N[C@@H](Cc1ccccc1)C(=O)N[C@@H](CC(=O)O)C(=O)N[C@@H](C)C(=O)N[C@]1(C)CCCCCCC=CCOC(=O)N2CC[C@@](C(=O)N[C@@H](Cc3ccccc3)C(=O)N[C@@H](Cc3c[nH]c4ccccc34)C(=O)N[C@@H](CCC(N)=O)C(N)=O)(C2)NC(=O)[C@H](C(C)C)NC(=O)[C@H](Cc2ccccc2)NC(=O)[C@H](C)NC(=O)[C@H](C)NC(=O)[C@H](Cc2cccnc2)NC(=O)[C@H](CC(=O)O)NC1=O (single isomer, unassigned) [I-9, Ac-Phe-Asp-Ala-R8-Asp-3PyrA-Ala-Ala-Phe-Val-PyrS-Phe-Trp-Gln-NH2]
